Columns and labels:
Details in all cases: compound at 10 μM
[1] = target: T1, Human δ-opioid (DOP) (Homo sapiens, UniProt P41143); experiment: Radioligand binding, human δ-opioid (DOP) membranes, FlashPlate, [3H]-Bremazocine
T1 construct: purchased Perkin Elmer Biosignal
Procedure, shortened: (§1)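 Cloned human receptor membranes were coated onto FlashPlate wells and incubated with radioligand and compound (added from a 0.5 mM DMSO daughter plate) for 1 hour at room temperature in the dark. Scintillation counting gave percent inhibition, with DMSO defining total and reference ligand defining non-specific binding.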

[2] = target: T2, Human κ-Opioid (KOP) (Homo sapiens, UniProt P41145); experiment: Radioligand binding, human κ-opioid (KOP) membranes, filtration, [3H]-Diprenorphine
T2 construct: purchased Perkin Elmer Biosignal
Procedure, shortened: (§2)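 Percent inhibition of radioligand binding measured on recombinant human membranes: NK1 with [125I]-Substance P, KOP with [3H]-Diprenorphine. Incubation 1 h at room temperature, then harvest onto 0.3% PEI-soaked filters, cold Tris-HCl pH 7.4 washes and scintillation counting; non-specific binding from reference ligand wells.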

[3] = target: T3, Human Melanocortin (MC3) (Homo sapiens, UniProt P41968); experiment: Radioligand binding, human melanocortin MC3 membranes, FlashPlate, [125I]-NDP-αMSH
T3 construct: purchased Perkin Elmer Biosignal
Procedure, shortened: as §1

[4] = target: T4, Human Melanocortin (MC4) (Homo sapiens, UniProt P32245); experiment: Radioligand binding, human melanocortin MC4 membranes, FlashPlate, [125I]-NDP-αMSH
T4 construct: purchased Perkin Elmer Biosignal
Procedure, shortened: as §1

[5] = target: T5, Human melanocortin (MC5) (Homo sapiens, UniProt P33032); experiment: Radioligand binding, human melanocortin MC5 membranes, FlashPlate, [125I]-NDP-αMSH
T5 construct: purchased Perkin Elmer Biosignal
Procedure, shortened: as §1

[6] = target: T6, Human melanin-concentrating hormone (MCH1) (Homo sapiens, UniProt Q99705); experiment: Radioligand binding, human melanin-concentrating hormone MCH1 membranes, FlashPlate, [125I]-S36057
T6 construct: purchased Perkin Elmer Biosignal
Procedure, shortened: as §1

[7] = target: T7, Human μ-opioid (MOP) (Homo sapiens, UniProt P35372); experiment: Radioligand binding, human μ-opioid (MOP) membranes, FlashPlate, [3H]-Naloxone
T7 construct: purchased Perkin Elmer Biosignal
Procedure, shortened: as §1

[8] = target: T8, Human neurokinin (NK1) (Homo sapiens, UniProt P25103); experiment: Radioligand binding, human neurokinin NK1 membranes, filtration, [125I]-Substance P
T8 construct: purchased Perkin Elmer Biosignal
Procedure, shortened: as §2

[9] = target: T9, Human neuropeptide Y (NPY-Y1) (Homo sapiens, UniProt P25929); experiment: Radioligand binding, human neuropeptide Y NPY-Y1 membranes, FlashPlate, [125I]-PYY
T9 construct: purchased Perkin Elmer Biosignal
T9 sequence (P25929 1-384): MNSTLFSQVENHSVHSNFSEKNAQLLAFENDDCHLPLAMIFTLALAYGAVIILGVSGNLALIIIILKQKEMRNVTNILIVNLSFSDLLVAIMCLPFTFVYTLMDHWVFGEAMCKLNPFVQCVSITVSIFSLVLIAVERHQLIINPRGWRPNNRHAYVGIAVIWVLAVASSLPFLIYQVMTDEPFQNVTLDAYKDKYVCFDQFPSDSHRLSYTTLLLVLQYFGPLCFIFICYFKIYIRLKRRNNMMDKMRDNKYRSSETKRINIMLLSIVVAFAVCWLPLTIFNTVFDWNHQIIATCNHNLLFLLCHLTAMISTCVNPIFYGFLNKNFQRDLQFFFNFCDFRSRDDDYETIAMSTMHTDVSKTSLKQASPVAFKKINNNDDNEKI
Procedure, shortened: as §1

[10] = target: T10, Human opioid (ORL1) (Homo sapiens, UniProt P41146); experiment: Radioligand binding, human opioid ORL1 membranes, FlashPlate, [125I]-Nociceptin
T10 construct: purchased Perkin Elmer Biosignal
Procedure, shortened: as §1

[11] = target: T11, Mouse urotensin (mUR2) (Mus musculus, UniProt Q8VIH9); experiment: Radioligand binding, mouse urotensin mUR2 membranes, FlashPlate, [125I]-Urotensin II
T11 construct: purchased Perkin Elmer Biosignal
T11 sequence (Q8VIH9 1-385): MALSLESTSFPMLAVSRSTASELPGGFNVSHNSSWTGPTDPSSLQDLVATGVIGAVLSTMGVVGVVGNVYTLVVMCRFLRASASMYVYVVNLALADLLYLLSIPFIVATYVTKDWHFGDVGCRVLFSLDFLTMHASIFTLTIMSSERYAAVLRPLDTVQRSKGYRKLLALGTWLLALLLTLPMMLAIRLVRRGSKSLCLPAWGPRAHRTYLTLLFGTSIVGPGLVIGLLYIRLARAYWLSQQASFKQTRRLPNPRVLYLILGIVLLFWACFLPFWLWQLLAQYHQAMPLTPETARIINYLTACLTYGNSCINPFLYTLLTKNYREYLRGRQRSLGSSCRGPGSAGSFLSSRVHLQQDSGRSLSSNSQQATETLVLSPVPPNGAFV
Procedure, shortened: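 Cloned mouse urotensin (mUR2) receptor membranes from Perkin Elmer Biosignal were immobilized in FlashPlate microplates using a proprietary coating. Each well got 19.5 μl buffer, then 0.5 μl of DMSO, reference ligand, or compound. Adding 5 μl of [125I]-Urotensin II, diluted to 5× final concentration in binding buffer, started binding. Plates were sealed with TopSeal-A and incubated 1 hour at room temperature in the dark. Wells were counted for 30 seconds each on a TopCount after a 60-second delay, and percentage inhibition was calculated.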

T10 sequence (P41146 whole entry): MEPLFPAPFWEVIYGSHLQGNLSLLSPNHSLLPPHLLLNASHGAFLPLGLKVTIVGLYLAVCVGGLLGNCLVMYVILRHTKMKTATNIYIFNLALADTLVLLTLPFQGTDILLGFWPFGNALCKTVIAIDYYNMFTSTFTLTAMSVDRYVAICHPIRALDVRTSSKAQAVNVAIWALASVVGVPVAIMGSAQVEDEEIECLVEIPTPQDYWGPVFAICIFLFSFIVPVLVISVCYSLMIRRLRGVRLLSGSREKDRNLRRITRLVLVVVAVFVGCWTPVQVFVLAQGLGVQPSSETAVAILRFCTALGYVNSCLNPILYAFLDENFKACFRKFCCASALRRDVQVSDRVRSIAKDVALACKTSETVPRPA
T2 sequence (P41145 whole entry): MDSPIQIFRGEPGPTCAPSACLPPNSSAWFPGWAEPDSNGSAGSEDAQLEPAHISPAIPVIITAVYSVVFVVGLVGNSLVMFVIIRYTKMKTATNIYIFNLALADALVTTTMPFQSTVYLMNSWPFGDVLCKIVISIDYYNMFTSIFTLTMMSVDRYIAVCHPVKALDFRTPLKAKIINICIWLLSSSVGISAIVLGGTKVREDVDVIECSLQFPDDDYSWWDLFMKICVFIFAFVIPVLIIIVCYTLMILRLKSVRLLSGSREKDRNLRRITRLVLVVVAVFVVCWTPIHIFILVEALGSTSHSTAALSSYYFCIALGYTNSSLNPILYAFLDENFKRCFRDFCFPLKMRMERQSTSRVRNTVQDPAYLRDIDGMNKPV
T5 sequence (P33032 whole entry): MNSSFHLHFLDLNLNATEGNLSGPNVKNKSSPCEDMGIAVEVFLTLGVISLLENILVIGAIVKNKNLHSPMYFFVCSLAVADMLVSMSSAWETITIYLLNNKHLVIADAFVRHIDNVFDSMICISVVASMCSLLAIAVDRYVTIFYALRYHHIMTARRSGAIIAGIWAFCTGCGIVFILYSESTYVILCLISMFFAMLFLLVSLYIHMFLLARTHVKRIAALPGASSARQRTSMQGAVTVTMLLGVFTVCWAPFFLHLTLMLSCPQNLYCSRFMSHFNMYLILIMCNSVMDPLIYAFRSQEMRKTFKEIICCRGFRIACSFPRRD
T1 sequence (P41143 whole entry): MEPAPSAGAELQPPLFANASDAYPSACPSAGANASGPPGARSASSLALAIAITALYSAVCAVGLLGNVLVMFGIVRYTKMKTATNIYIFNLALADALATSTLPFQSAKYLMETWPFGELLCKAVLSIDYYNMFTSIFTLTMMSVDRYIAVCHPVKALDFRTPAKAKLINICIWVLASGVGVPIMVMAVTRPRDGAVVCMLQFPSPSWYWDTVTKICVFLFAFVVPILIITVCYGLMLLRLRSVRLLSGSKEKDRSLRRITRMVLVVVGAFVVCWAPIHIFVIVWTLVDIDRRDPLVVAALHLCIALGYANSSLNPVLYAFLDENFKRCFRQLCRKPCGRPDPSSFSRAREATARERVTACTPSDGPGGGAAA
T8 sequence (P25103 whole entry): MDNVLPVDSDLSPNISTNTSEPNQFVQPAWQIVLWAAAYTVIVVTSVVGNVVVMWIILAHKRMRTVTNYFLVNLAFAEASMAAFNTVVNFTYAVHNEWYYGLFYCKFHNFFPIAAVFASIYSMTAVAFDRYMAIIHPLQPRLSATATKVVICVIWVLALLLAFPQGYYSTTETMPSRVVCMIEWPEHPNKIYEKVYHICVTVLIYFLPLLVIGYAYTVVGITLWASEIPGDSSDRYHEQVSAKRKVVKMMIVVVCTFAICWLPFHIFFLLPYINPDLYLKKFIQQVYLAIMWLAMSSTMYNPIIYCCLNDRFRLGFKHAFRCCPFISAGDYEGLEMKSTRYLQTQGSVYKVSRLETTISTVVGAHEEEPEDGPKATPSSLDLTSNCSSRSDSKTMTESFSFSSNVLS
T7 sequence (P35372 whole entry): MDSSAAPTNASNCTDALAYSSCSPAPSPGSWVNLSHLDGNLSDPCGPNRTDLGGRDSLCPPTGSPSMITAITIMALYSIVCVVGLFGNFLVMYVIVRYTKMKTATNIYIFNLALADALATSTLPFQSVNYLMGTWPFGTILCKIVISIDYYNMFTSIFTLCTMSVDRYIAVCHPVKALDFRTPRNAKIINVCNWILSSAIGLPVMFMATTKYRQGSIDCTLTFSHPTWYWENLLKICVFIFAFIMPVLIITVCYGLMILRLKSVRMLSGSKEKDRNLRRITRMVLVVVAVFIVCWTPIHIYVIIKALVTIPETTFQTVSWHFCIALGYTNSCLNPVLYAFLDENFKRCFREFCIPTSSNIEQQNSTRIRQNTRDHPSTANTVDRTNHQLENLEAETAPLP
T6 sequence (Q99705 whole entry): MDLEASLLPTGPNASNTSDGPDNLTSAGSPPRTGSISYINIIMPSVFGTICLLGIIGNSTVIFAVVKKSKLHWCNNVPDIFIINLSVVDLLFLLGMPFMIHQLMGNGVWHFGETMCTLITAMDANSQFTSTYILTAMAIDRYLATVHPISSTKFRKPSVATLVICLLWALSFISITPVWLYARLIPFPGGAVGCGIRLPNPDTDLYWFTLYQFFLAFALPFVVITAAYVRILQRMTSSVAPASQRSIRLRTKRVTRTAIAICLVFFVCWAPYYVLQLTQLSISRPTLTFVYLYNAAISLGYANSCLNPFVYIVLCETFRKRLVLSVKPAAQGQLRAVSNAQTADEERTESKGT
T4 sequence (P32245 whole entry): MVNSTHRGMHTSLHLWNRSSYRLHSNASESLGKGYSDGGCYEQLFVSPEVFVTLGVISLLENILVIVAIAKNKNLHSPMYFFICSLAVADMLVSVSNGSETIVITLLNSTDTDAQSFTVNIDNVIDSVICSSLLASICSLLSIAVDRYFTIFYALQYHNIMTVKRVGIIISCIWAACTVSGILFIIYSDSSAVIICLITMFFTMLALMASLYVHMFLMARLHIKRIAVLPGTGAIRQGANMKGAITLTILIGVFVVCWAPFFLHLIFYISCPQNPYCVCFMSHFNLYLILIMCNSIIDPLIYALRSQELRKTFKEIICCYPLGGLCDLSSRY
T3 sequence (P41968 whole entry): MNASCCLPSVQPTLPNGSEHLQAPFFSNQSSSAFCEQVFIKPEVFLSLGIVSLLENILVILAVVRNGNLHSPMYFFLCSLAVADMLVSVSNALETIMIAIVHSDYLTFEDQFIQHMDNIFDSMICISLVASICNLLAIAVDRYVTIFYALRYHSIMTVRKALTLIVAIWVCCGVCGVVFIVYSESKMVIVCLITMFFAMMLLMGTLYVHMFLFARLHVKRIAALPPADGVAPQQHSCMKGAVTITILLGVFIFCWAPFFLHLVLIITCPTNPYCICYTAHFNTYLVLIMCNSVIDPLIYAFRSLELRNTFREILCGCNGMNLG

CSC1O[C@H](COCc2ccccc2)[C@@H](O)[C@@H](OCc2ccc(-c3ccccc3)cc2)[C@H]1NC(=O)CCNC(=N)N (stereo partly shown) [compound 286]
A1: inhibition of radioligand binding, human δ-opioid (DOP) ([1]; [3H]-Bremazocine): − (“−” indicates less than 50% inhibition at 10 μM)
A2: inhibition of radioligand binding, human κ-opioid (KOP) ([2]; [3H]-Diprenorphine): − (“−” indicates less than 50% inhibition at 10 μM)
A3: inhibition of radioligand binding, human melanocortin (MC3) ([3]; [125I]-NDP-αMSH): − (“−” indicates less than 50% inhibition at 10 μM)
A4: inhibition of radioligand binding, human melanocortin (MC4) ([4]; [125I]-NDP-αMSH): − (“−” indicates less than 50% inhibition at 10 μM)
A5: inhibition of radioligand binding, human melanocortin (MC5) ([5]; [125I]-NDP-αMSH): + (“+” indicates greater than 50% inhibition at 10 μM)
A6: inhibition of radioligand binding, human melanin-concentrating hormone (MCH1) ([6]; [125I]-S36057): − (“−” indicates less than 50% inhibition at 10 μM)
A7: inhibition of radioligand binding, human μ-opioid (MOP) ([7]; [3H]-Naloxone): − (“−” indicates less than 50% inhibition at 10 μM)
A8: inhibition of radioligand binding, human neurokinin (NK1) ([8]; [125I]-Substance P): + (“+” indicates greater than 50% inhibition at 10 μM)
A9: inhibition of radioligand binding, human neuropeptide Y (NPY-Y1) ([9]; [125I]-PYY): − (“−” indicates less than 50% inhibition at 10 μM)
A10: inhibition of radioligand binding, human opioid (ORL1) ([10]; [125I]-Nociceptin): − (“−” indicates less than 50% inhibition at 10 μM)
A11: inhibition of radioligand binding, mouse urotensin (mUR2) ([11]; [125I]-Urotensin II): − (“−” indicates less than 50% inhibition at 10 μM)

CSC1OC(COCc2ccccc2)C(O)C(OCc2ccc3ccccc3c2)C1NC(=O)CCNC(=N)N (stereo not shown) [compound 303]
A1: inhibition of radioligand binding, human δ-opioid (DOP) ([1]; [3H]-Bremazocine): − (“−” indicates less than 50% inhibition at 10 μM)
A2: inhibition of radioligand binding, human κ-opioid (KOP) ([2]; [3H]-Diprenorphine): − (“−” indicates less than 50% inhibition at 10 μM)
A3: inhibition of radioligand binding, human melanocortin (MC3) ([3]; [125I]-NDP-αMSH): − (“−” indicates less than 50% inhibition at 10 μM)
A4: inhibition of radioligand binding, human melanocortin (MC4) ([4]; [125I]-NDP-αMSH): + (“+” indicates greater than 50% inhibition at 10 μM)
A5: inhibition of radioligand binding, human melanocortin (MC5) ([5]; [125I]-NDP-αMSH): + (“+” indicates greater than 50% inhibition at 10 μM)
A6: inhibition of radioligand binding, human melanin-concentrating hormone (MCH1) ([6]; [125I]-S36057): − (“−” indicates less than 50% inhibition at 10 μM)
A7: inhibition of radioligand binding, human μ-opioid (MOP) ([7]; [3H]-Naloxone): − (“−” indicates less than 50% inhibition at 10 μM)
A8: inhibition of radioligand binding, human neurokinin (NK1) ([8]; [125I]-Substance P): + (“+” indicates greater than 50% inhibition at 10 μM)
A9: inhibition of radioligand binding, human neuropeptide Y (NPY-Y1) ([9]; [125I]-PYY): − (“−” indicates less than 50% inhibition at 10 μM)
A10: inhibition of radioligand binding, human opioid (ORL1) ([10]; [125I]-Nociceptin): − (“−” indicates less than 50% inhibition at 10 μM)
A11: inhibition of radioligand binding, mouse urotensin (mUR2) ([11]; [125I]-Urotensin II): − (“−” indicates less than 50% inhibition at 10 μM)

COC[C@H]1OC(OCCc2ccccc2)[C@H](NC(=O)CCNC(=N)N)[C@@H](OCc2ccc3ccccc3c2)[C@@H]1O (stereo partly shown) [compound 45]
A1 radioligand binding inhibition ([1]; human δ-opioid (DOP) membranes): − (“−” indicates less than 50% inhibition at 10 μM)
A2 radioligand binding inhibition ([2]; human κ-opioid (KOP) membranes): − (“−” indicates less than 50% inhibition at 10 μM)
A3 radioligand binding inhibition ([3]; human melanocortin MC3 membranes): − (“−” indicates less than 50% inhibition at 10 μM)
A4 radioligand binding inhibition ([4]; human melanocortin MC4 membranes): + (“+” indicates greater than 50% inhibition at 10 μM)
A5 radioligand binding inhibition ([5]; human melanocortin MC5 membranes): − (“−” indicates less than 50% inhibition at 10 μM)
A6 radioligand binding inhibition ([6]; human MCH1 membranes): − (“−” indicates less than 50% inhibition at 10 μM)
A7 radioligand binding inhibition ([7]; human μ-opioid (MOP) membranes): − (“−” indicates less than 50% inhibition at 10 μM)
A8 radioligand binding inhibition ([8]; human neurokinin NK1 membranes): + (“+” indicates greater than 50% inhibition at 10 μM)
A9 radioligand binding inhibition ([9]; human NPY-Y1 membranes): − (“−” indicates less than 50% inhibition at 10 μM)
A10 radioligand binding inhibition ([10]; human ORL1 membranes): − (“−” indicates less than 50% inhibition at 10 μM)
A11 radioligand binding inhibition ([11]; mouse urotensin mUR2 membranes): − (“−” indicates less than 50% inhibition at 10 μM)

CO[C@H]1[C@H](O)[C@@H](COCc2ccccc2)OC(OCCNC(=N)N)[C@@H]1NC(=O)c1c[nH]c2ccccc12 (stereo partly shown) [compound 125]
A1 radioligand binding, percentage inhibition ([1]; [3H]-Bremazocine): − (“−” indicates less than 50% inhibition at 10 μM)
A2 radioligand binding, percentage inhibition ([2]; [3H]-Diprenorphine): − (“−” indicates less than 50% inhibition at 10 μM)
A3 radioligand binding, percentage inhibition ([3]; [125I]-NDP-αMSH): − (“−” indicates less than 50% inhibition at 10 μM)
A4 radioligand binding, percentage inhibition ([4]; [125I]-NDP-αMSH): − (“−” indicates less than 50% inhibition at 10 μM)
A5 radioligand binding, percentage inhibition ([5]; [125I]-NDP-αMSH): − (“−” indicates less than 50% inhibition at 10 μM)
A6 radioligand binding, percentage inhibition ([6]; [125I]-S36057): − (“−” indicates less than 50% inhibition at 10 μM)
A7 radioligand binding, percentage inhibition ([7]; [3H]-Naloxone): − (“−” indicates less than 50% inhibition at 10 μM)
A8 radioligand binding, percentage inhibition ([8]; [125I]-Substance P): + (“+” indicates greater than 50% inhibition at 10 μM)
A9 radioligand binding, percentage inhibition ([9]; [125I]-PYY): − (“−” indicates less than 50% inhibition at 10 μM)
A10 radioligand binding, percentage inhibition ([10]; [125I]-Nociceptin): − (“−” indicates less than 50% inhibition at 10 μM)
A11 radioligand binding, percentage inhibition ([11]; [125I]-Urotensin II): − (“−” indicates less than 50% inhibition at 10 μM)

N=C(N)NCCC(=O)NC1C(OCc2ccc(-c3ccccc3)cc2)OC(COCc2ccccc2)C(O)C1OCc1ccc2ccccc2c1 (stereo not shown) [compound 412]
A1: inhibition of radioligand binding ([1]; [3H]-Bremazocine, human DOP membranes): − (“−” indicates less than 50% inhibition at 10 μM)
A2: inhibition of radioligand binding ([2]; [3H]-Diprenorphine, human KOP membranes): − (“−” indicates less than 50% inhibition at 10 μM)
A3: inhibition of radioligand binding ([3]; [125I]-NDP-αMSH, human MC3 membranes): + (“+” indicates greater than 50% inhibition at 10 μM)
A4: inhibition of radioligand binding ([4]; [125I]-NDP-αMSH, human MC4 membranes): + (“+” indicates greater than 50% inhibition at 10 μM)
A5: inhibition of radioligand binding ([5]; [125I]-NDP-αMSH, human MC5 membranes): + (“+” indicates greater than 50% inhibition at 10 μM)
A6: inhibition of radioligand binding ([6]; [125I]-S36057, human MCH1 membranes): + (“+” indicates greater than 50% inhibition at 10 μM)
A7: inhibition of radioligand binding ([7]; [3H]-Naloxone, human MOP membranes): − (“−” indicates less than 50% inhibition at 10 μM)
A8: inhibition of radioligand binding ([8]; [125I]-Substance P, human NK1 membranes): + (“+” indicates greater than 50% inhibition at 10 μM)
A9: inhibition of radioligand binding ([9]; [125I]-PYY, human NPY-Y1 membranes): − (“−” indicates less than 50% inhibition at 10 μM)
A10: inhibition of radioligand binding ([10]; [125I]-Nociceptin, human ORL1 membranes): + (“+” indicates greater than 50% inhibition at 10 μM)
A11: inhibition of radioligand binding ([11]; [125I]-Urotensin II, mouse mUR2 membranes): − (“−” indicates less than 50% inhibition at 10 μM)
